Holding throughout (type): functional
In assay [1] the test system is Aspergillus niger. As to the kind of experiment: Antifungal activity against Aspergillus niger F-1119 at 0.1% after 48 to 72 hrs by agar disk diffusion technique.
In assay [2] the test system is Yamadazyma tenuis. As to the kind of experiment: Antifungal activity against Candida tenuis VKM Y-70 at 0.1% after 48 to 72 hrs by agar disk diffusion technique. On the technique in general: In agar diffusion tests the substance spreads into inoculated agar from a disc or well.
Assay [3] deals with Mycobacterium. As to the kind of experiment: Antibacterial activity against Mycobacterium luteum B-917 at 0.1% after 24 hrs by agar disk diffusion technique.
Assay [4] has as its system Staphylococcus aureus. As to the kind of experiment: Antibacterial activity against Staphylococcus aureus 209-P at 0.1% after 24 hrs by agar disk diffusion technique.
The test system of assay [5] is Escherichia coli. As to the kind of experiment: Antibacterial activity against Escherichia coli B-906 at 0.1% after 24 hrs by agar disk diffusion technique.
Assay [6] has as its system Aspergillus niger. As to the kind of experiment: Antifungal activity against Aspergillus niger F-1119 after 24 to 72 hrs by serial dilution technique.
Assay [7] has as its system Yamadazyma tenuis. As to the kind of experiment: Antifungal activity against Candida tenuis VKM Y-70 after 24 to 72 hrs by serial dilution technique.
Assay [8] relates to Mycobacterium. As to the kind of experiment: Antibacterial activity against Mycobacterium luteum B-917 after 24 to 72 hrs by serial dilution technique.
The test system of assay [9] is Staphylococcus aureus. As to the kind of experiment: Antibacterial activity against Staphylococcus aureus 209-P after 24 to 72 hrs by serial dilution technique.
Assay [10] deals with Escherichia coli. As to the kind of experiment: Antibacterial activity against Escherichia coli B-906 after 24 to 72 hrs by serial dilution technique.
The subject of assay [11] is Aspergillus niger. As to the kind of experiment: Antifungal activity against Aspergillus niger F-1119 at 0.5% after 48 to 72 hrs by agar disk diffusion technique.
Assay [12] relates to Yamadazyma tenuis. As to the kind of experiment: Antifungal activity against Candida tenuis VKM Y-70 at 0.5% after 48 to 72 hrs by agar disk diffusion technique.
In assay [13] the test system is Mycobacterium. As to the kind of experiment: Antibacterial activity against Mycobacterium luteum B-917 at 0.5% after 24 hrs by agar disk diffusion technique.
Assay [14] concerns Staphylococcus aureus. As to the kind of experiment: Antibacterial activity against Staphylococcus aureus 209-P at 0.5% after 24 hrs by agar disk diffusion technique.
Assay [15] concerns Escherichia coli. As to the kind of experiment: Antibacterial activity against Escherichia coli B-906 at 0.5% after 24 hrs by agar disk diffusion technique.

≈ marks a conversion by molar mass, not a printed value. Calls of active or inactive are those of the source. No cut-off for these calls is given here.

Turning to `CCCCOC(=O)CCSC1=C(Sc2ccc(O)cc2)C(=O)c2ccccc2C1=O`, the “diameter of the inhibition zone (DIZ)” value in the assay with Aspergillus niger [1], in the assay on Yamadazyma tenuis [2], in the assay with Mycobacterium [3], with Staphylococcus aureus [4], in the assay on Escherichia coli [5] and in the assay on Aspergillus niger [11] was 0 mm each time. Moreover, the “diameter of the inhibition zone (DIZ)” value is given as 0 mm with Yamadazyma tenuis [12], 6 mm in the assay on Mycobacterium [13], 0 mm in the assay on Staphylococcus aureus [14] and 0 mm with Escherichia coli [15]. In addition, the MIC result in the assay on Aspergillus niger [6], in the assay with Yamadazyma tenuis [7], in the assay on Mycobacterium [8], in the assay with Staphylococcus aureus [9] and in the assay with Escherichia coli [10] was “inactive” throughout.

In the case of `O=C1C(Sc2c(Cl)c(Cl)c(Cl)c(Cl)c2Cl)=C(N2CCCCC2)C(=O)c2ccccc21`, the “diameter of the inhibition zone (DIZ)” value in the assay with Aspergillus niger [1], in the assay on Yamadazyma tenuis [2], in the assay with Mycobacterium [3], with Staphylococcus aureus [4], in the assay on Escherichia coli [5] and in the assay on Aspergillus niger [11] was 0 mm each time. The “diameter of the inhibition zone (DIZ)” value with Yamadazyma tenuis [12], in the assay with Mycobacterium [13], in the assay on Staphylococcus aureus [14] and with Escherichia coli [15] was 0 mm in each case. Further, the MIC result with Aspergillus niger [6], in the assay with Yamadazyma tenuis [7], in the assay with Mycobacterium [8], with Staphylococcus aureus [9] and with Escherichia coli [10] was “inactive” throughout.

Consider `O=C1C(Sc2c(Cl)c(Cl)c(Cl)c(Cl)c2Cl)=C(N2CCN(c3ccc(F)cc3)CC2)C(=O)c2ccccc21`, for which the “diameter of the inhibition zone (DIZ)” value in the assay with Aspergillus niger [1], in the assay with Yamadazyma tenuis [2], with Mycobacterium [3], in the assay on Staphylococcus aureus [4], in the assay on Escherichia coli [5] and in the assay on Aspergillus niger [11] was 0 mm in each case. Also, the “diameter of the inhibition zone (DIZ)” value with Yamadazyma tenuis [12], in the assay with Mycobacterium [13], in the assay on Staphylococcus aureus [14] and in the assay with Escherichia coli [15] was 0 mm throughout. Besides, the MIC result in the assay with Aspergillus niger [6], with Yamadazyma tenuis [7], with Staphylococcus aureus [9] and in the assay with Escherichia coli [10] was “inactive” throughout. Also, the minimum inhibitory concentration (MIC) – broadly, the lowest concentration that inhibits growth of the organism – in the assay with Mycobacterium [8] came out at 125 µg/mL (≈ 203 µM).

As for `O=C1C(Sc2c(Cl)c(Cl)c(Cl)c(Cl)c2Cl)=C(N2CCOCC2)C(=O)c2ccccc21`, the “diameter of the inhibition zone (DIZ)” value in the assay with Aspergillus niger [1], with Yamadazyma tenuis [2], with Mycobacterium [3], with Staphylococcus aureus [4], in the assay on Escherichia coli [5] and with Aspergillus niger [11] was 0 mm throughout. In addition, the “diameter of the inhibition zone (DIZ)” value with Yamadazyma tenuis [12], in the assay on Mycobacterium [13], in the assay with Staphylococcus aureus [14] and with Escherichia coli [15] was 0 mm in each case. For the same molecule, the MIC result with Aspergillus niger [6], in the assay on Yamadazyma tenuis [7], with Mycobacterium [8], with Staphylococcus aureus [9] and in the assay on Escherichia coli [10] was “inactive” each time.

With `O=C1C(Sc2c(Cl)c(Cl)c(Cl)c(Cl)c2Cl)=C(N2CCSCC2)C(=O)c2ccccc21`, the “diameter of the inhibition zone (DIZ)” value in the assay on Aspergillus niger [1], in the assay on Yamadazyma tenuis [2], in the assay with Mycobacterium [3], with Staphylococcus aureus [4], in the assay with Escherichia coli [5] and with Aspergillus niger [11] was 0 mm each time. The “diameter of the inhibition zone (DIZ)” value in the assay on Yamadazyma tenuis [12], in the assay with Mycobacterium [13], in the assay on Staphylococcus aureus [14] and in the assay on Escherichia coli [15] was 0 mm throughout. For the same molecule, the MIC result with Aspergillus niger [6], with Mycobacterium [8], in the assay with Staphylococcus aureus [9] and in the assay with Escherichia coli [10] was “inactive” in each case. In addition, the MIC against Yamadazyma tenuis [7] came to 125 µg/mL (≈ 232 µM).

Turning to `CSc1ccc(SC2=C(Sc3ccc(SC)cc3)C(=O)c3ccccc3C2=O)cc1`, the “diameter of the inhibition zone (DIZ)” value was found to be 0 mm with Aspergillus niger [1]; 0 mm in the assay with Yamadazyma tenuis [2]; 8.7 mm in the assay with Mycobacterium [3]; 0 mm in the assay on Staphylococcus aureus [4]; 0 mm in the assay on Escherichia coli [5]; 6 mm in the assay on Aspergillus niger [11]. In addition, the “diameter of the inhibition zone (DIZ)” value with Yamadazyma tenuis [12] is given as 0 mm; in the assay on Mycobacterium [13], 11 mm; in the assay with Staphylococcus aureus [14] it was 8.7 mm; in the assay on Escherichia coli [15], 0 mm. The results for the minimal inhibitory concentration (MIC) with Aspergillus niger [6], against Mycobacterium [8] and against Staphylococcus aureus [9] were 500 µg/mL (≈ 1070 µM), 125 µg/mL (≈ 268 µM) and 250 µg/mL (≈ 536 µM), respectively. The MIC result with Yamadazyma tenuis [7] and in the assay on Escherichia coli [10] was “inactive” throughout.

Turning to `CCCCOC(=O)CCSC1=C(SCCC(=O)OCCCC)C(=O)c2ccccc2C1=O`, the “diameter of the inhibition zone (DIZ)” value came to 0 mm in the assay with Aspergillus niger [1]; 0 mm in the assay with Yamadazyma tenuis [2]; 0 mm in the assay with Mycobacterium [3]; 0 mm in the assay with Staphylococcus aureus [4]; 0 mm in the assay with Escherichia coli [5]; 6 mm with Aspergillus niger [11]. In addition, the “diameter of the inhibition zone (DIZ)” value in the assay on Yamadazyma tenuis [12], with Mycobacterium [13], with Staphylococcus aureus [14] and in the assay on Escherichia coli [15] was 0 mm in each case. The MIC result in the assay with Aspergillus niger [6], in the assay on Yamadazyma tenuis [7], in the assay with Mycobacterium [8], with Staphylococcus aureus [9] and with Escherichia coli [10] was “inactive” each time.

As for `CN[C@H](CC(C)C)C(=O)N[C@H]1C(=O)N[C@@H](CC(N)=O)C(=O)N[C@H]2C(=O)N[C@H]3C(=O)N[C@H](C(=O)N[C@H](C(=O)O)c4cc(O)cc(O)c4-c4cc3ccc4O)[C@H](O)c3ccc(c(Cl)c3)Oc3cc2cc(c3O[C@@H]2O[C@H](CO)[C@@H](O)[C@H](O)[C@H]2O[C@H]2C[C@](C)(N)[C@H](O)[C@H](C)O2)Oc2ccc(cc2Cl)[C@H]1O` [VANCOMYCIN], the “diameter of the inhibition zone (DIZ)” value worked out at 18 mm in the assay with Mycobacterium [3], 15 mm in the assay with Staphylococcus aureus [4] and 14 mm with Escherichia coli [5].

As for `CCCCOC(=O)CCSC1=C(N2CCC3(CC2)OCCO3)C(=O)c2ccccc2C1=O`, the “diameter of the inhibition zone (DIZ)” value in the assay on Aspergillus niger [1] is 7 mm; in the assay with Yamadazyma tenuis [2], 0 mm; with Mycobacterium [3] it was 0 mm; in the assay with Staphylococcus aureus [4] it was 0 mm; with Escherichia coli [5] it was 0 mm; with Aspergillus niger [11] it was 9 mm. Besides, the “diameter of the inhibition zone (DIZ)” value with Yamadazyma tenuis [12], in the assay with Mycobacterium [13], in the assay with Staphylococcus aureus [14] and in the assay with Escherichia coli [15] was 0 mm in each case. The MIC was 62.5 µg/mL (≈ 136 µM) against Aspergillus niger [6] and 125 µg/mL (≈ 272 µM) against Mycobacterium [8]. Moreover, the MIC entry in the assay with Yamadazyma tenuis [7], with Staphylococcus aureus [9] and in the assay with Escherichia coli [10] was “inactive” each time.

As for `COC(=O)CCSC1=C(N2CCC3(CC2)OCCO3)C(=O)c2ccccc2C1=O`, the “diameter of the inhibition zone (DIZ)” value with Aspergillus niger [1] was found to be 0 mm; in the assay with Yamadazyma tenuis [2] it was 0 mm; in the assay on Mycobacterium [3] it was 0 mm; in the assay with Staphylococcus aureus [4] it was 0 mm; in the assay on Escherichia coli [5], 0 mm; in the assay with Aspergillus niger [11], 8.4 mm. For the same molecule, the “diameter of the inhibition zone (DIZ)” value in the assay with Yamadazyma tenuis [12] is recorded as 0 mm; with Mycobacterium [13], 12.6 mm; in the assay with Staphylococcus aureus [14] it was 0 mm; with Escherichia coli [15], 0 mm. The minimum inhibitory concentration (MIC) stood at 500 µg/mL (≈ 1200 µM) with Aspergillus niger [6] and 250 µg/mL (≈ 599 µM) against Mycobacterium [8]. The MIC result in the assay with Yamadazyma tenuis [7], in the assay with Staphylococcus aureus [9] and with Escherichia coli [10] was “inactive” in each case.

In the case of `O=C1C(Sc2c(Cl)c(Cl)c(Cl)c(Cl)c2Cl)=C(N2CCCC2)C(=O)c2ccccc21`, the “diameter of the inhibition zone (DIZ)” value with Aspergillus niger [1], with Yamadazyma tenuis [2], in the assay on Mycobacterium [3], in the assay on Staphylococcus aureus [4], in the assay on Escherichia coli [5] and in the assay on Aspergillus niger [11] was 0 mm in each case. In addition, the “diameter of the inhibition zone (DIZ)” value in the assay on Yamadazyma tenuis [12], in the assay on Mycobacterium [13], in the assay with Staphylococcus aureus [14] and with Escherichia coli [15] was 0 mm each time. The MIC result with Aspergillus niger [6], in the assay with Yamadazyma tenuis [7], in the assay on Mycobacterium [8], in the assay on Staphylococcus aureus [9] and in the assay on Escherichia coli [10] was “inactive” in each case.

Regarding NYSTATIN, the inhibition zone (IZ) with Yamadazyma tenuis [2] was 19 mm.

The values are drawn from ChEMBL document CHEMBL2424637, “Nucleophilic substitution reactions of 1,4-naphthoquinone and biologic properties of novel S-, S,S-, N-, and N,S-substituted 1,4-naphthoquinone derivatives” (2013).
